The target in test [1] is T1, Avi-KRAS G12D (1-169) GppNHp/RAF1 RBD-3×FLAG (52-151) (Homo sapiens, UniProt P01116, G12D).
T1 construct: 50 nM Avi-KRAS G12D (1-169) GppNHp/RAF1 RBD-3×FLAG (52-151)
The test can be described thus: Disrupting RAS-effector binding HTRF assay, Raf1 RBD-KRAS G12D-GppNHp. To be noted: PPI HTRF, 50 nM Avi-KRAS G12D GppNHp, compound titration 30-0.0045 μM; read-out: Raf1 RBD-KRAS G12D-GppNHp disruption.

Test [2] addresses T2, Avi-KRAS G12V (1-169) GppNHp/RAF1 RBD-3×FLAG (52-151) (Homo sapiens, UniProt P01116, G12V).
T2 construct: 50 nM Avi-KRAS G12V (1-169) GppNHp/RAF1 RBD-3×FLAG (52-151)
Nature of the test: Disrupting RAS-effector binding HTRF assay, Raf1 RBD-KRAS G12V-GppNHp. To be noted: PPI HTRF, 50 nM Avi-KRAS G12V GppNHp, compound titration 30-0.0045 μM; read-out: Raf1 RBD-KRAS G12V-GppNHp disruption. Background: Time-resolved FRET reads energy transfer from a long-lived donor to a nearby acceptor.

Test [3] deals with T3, Avi-KRAS G12R (1-169) GppNHp/RAF1 RBD-3×FLAG (52-151) (Homo sapiens, UniProt P01116, G12R).
T3 construct: 50 nM Avi-KRAS G12R (1-169) GppNHp/RAF1 RBD-3×FLAG (52-151)
T3 sequence (P01116 1-169 isoform P01116-2 G12R limits assumed): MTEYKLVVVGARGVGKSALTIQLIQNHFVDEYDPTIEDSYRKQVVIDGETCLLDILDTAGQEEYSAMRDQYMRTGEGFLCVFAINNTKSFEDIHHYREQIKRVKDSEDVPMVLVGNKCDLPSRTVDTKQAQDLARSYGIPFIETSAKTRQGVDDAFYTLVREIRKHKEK
The test can be described thus: Disrupting RAS-effector binding HTRF assay, Raf1 RBD-KRAS G12R-GppNHp. Particulars: PPI HTRF, 50 nM Avi-KRAS G12R GppNHp, compound titration 30-0.0045 μM; read-out: Raf1 RBD-KRAS G12R-GppNHp disruption.

The target in test [4] is T4, Avi-KRAS WT (1-169) GppNHp/RAF1 RBD-3×FLAG (52-151) (Homo sapiens, UniProt P01116).
T4 construct: 50 nM Avi-KRAS WT (1-169) GppNHp/RAF1 RBD-3×FLAG (52-151)
T4 sequence (P01116 1-169 isoform P01116-2 limits assumed): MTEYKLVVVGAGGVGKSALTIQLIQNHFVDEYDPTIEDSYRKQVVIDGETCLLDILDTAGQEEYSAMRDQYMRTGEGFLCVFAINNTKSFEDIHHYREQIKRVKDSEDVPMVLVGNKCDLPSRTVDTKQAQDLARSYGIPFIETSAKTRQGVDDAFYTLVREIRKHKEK
The test can be described thus: Disrupting RAS-effector binding HTRF assay, Raf1 RBD-KRAS WT-GppNHp. To be noted: PPI HTRF, 50 nM Avi-KRAS WT GppNHp, compound titration 30-0.0045 μM; read-out: Raf1 RBD-KRAS WT-GppNHp disruption.

Test [5] concerns KRAS G12D protein/effector signaling in GP2d cells. The test can be described thus: Cell-based pERK HTRF assay in GP2d cell. Particulars: 1 h, 60 min incubation. In short, it runs like this: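 GP2d cells (DMEM, 10% FBS) exposed 60 min to a 9-point half-log compound series at 0.25% DMSO, then lysed. Phospho-ERK quantified by HTRF with d2/Eu cryptate antibodies after 4–24 h at room temperature, ex 320/em 615 nm.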

Test [6] has as its system KRAS G12V protein/effector signaling in SW620 cells. The test can be described thus: Cell-based pERK HTRF assay in SW620 cell. Particulars: Homo sapiens, SW-620, 1 h incubation. As to the method: pERK assay (Perkin Elmer) was used to determine the effectiveness of compounds in disrupting KRAS G12V protein/effector signaling in cells.
On Day 1, cells (SW620) were seeded into 96-well plates at 3×10^4 cells/well in 80 μL complete growth media (DMEM, 10% FBS).
On Day 2, cells were treated with compounds at 0.25% DMSO. The source plate was created with compounds diluted in media at 5-fold the final assay concentration. The compounds were run in a 9-point concentration curve starting at 10 μM, with a half-log dilution between concentrations. 20 μL was transferred onto the cell plates (final volume in wells was 100 μL). Plates were harvested after 1 h incubation by aspirating media and adding kit-supplied 1× supplemented lysis buffer to all wells (50 μL per well). Plates were then placed on a plate shaker and incubated at 850 rpm for an additional 30 min.
Antibody mixture solution was prepared by diluting aliquoted d2 and Eu Cryptate antibodies 1:20 in kit supplied detection buffer, and mixing the diluted antibodies solutions (1:1 v:v). Four μL of this solution was then added to a 384-well detection plate (Perkin Elmer; 6008230).
Samples were homogenized by pipetting up and down and then transferred (16 μL of cell lysates) from the 96-well cell culture plate to two wells of the HTRF 384-well detection plate containing the antibody solution. Plates were centrifuged (524 g for 1 min) and allowed to incubate between 4 and 24 h at room temperature. Maximum signal was reached after 4 h incubation time and remained stable over a period of 24 hours. Therefore, readings could be made between 4 and 24 h of incubation. Plates were centrifuged again (524 g for 1 min), then analyzed on the EnVision plate reader using the following settings: Excitation 320 nm, Bandwidth 75 nm; Emission 615 nm, Bandwidth 85 nm; Gain 100%; Flashes 100; Lag 60 μs.

T2 sequence (P01116 1-169 isoform P01116-2 G12V limits assumed): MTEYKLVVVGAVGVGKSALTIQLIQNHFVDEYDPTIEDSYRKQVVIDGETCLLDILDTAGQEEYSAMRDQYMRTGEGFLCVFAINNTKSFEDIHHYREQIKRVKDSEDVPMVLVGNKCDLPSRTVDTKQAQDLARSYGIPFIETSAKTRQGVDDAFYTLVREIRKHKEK
T1 sequence (P01116 1-169 isoform P01116-2 G12D limits assumed): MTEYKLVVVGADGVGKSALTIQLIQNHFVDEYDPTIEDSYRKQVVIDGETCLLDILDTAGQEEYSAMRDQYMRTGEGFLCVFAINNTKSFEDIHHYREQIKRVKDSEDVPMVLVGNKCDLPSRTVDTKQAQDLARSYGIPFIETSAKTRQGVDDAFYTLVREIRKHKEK

Take `N#Cc1c(N)sc2c(F)ccc(-c3c(C(F)(F)F)cc4c(N5CC6CCC(C5)N6)nc(OCCC5CCOC5)nc4c3F)c12` (stereo not drawn) [Compound 50]: the IC50 in test [1] is 100 to 1000 nM; in test [2] it was above 10000 nM; in test [3] it was above 10000 nM; in test [4], 1000 to 10000 nM; in test [5], at most 100 nM; in test [6] it was above 10000 nM.

On to `N#Cc1c(N)sc2c(F)ccc(-c3c(C(F)(F)F)cc4c(N5CC6CCC(C5)N6)nc(OCCCCO)nc4c3F)c12` [Compound 41], for which the IC50 is 100 to 1000 nM in test [1]; above 10000 nM in test [2]; above 10000 nM in test [3]; 1000 to 10000 nM in test [4]; at most 100 nM in test [5]; above 10000 nM in test [6].

Take `N#Cc1c(N)sc2c(F)ccc(-c3c(C(F)(F)F)cc4c(N5CC6CCC(C5)N6)nc(OCC5CC6CCC(C5)O6)nc4c3F)c12` (stereo not drawn) [Compound 52]: the IC50 is 1000 to 10000 nM in test [1]; above 10000 nM in test [2]; above 10000 nM in test [3]; 1000 to 10000 nM in test [4]; at most 100 nM in test [5]; above 10000 nM in test [6].

Take `N#Cc1c(N)sc2c(F)ccc(-c3c(C(F)(F)F)cc4c(N5CC6CCC(C5)N6)nc(OCC5CCS(=O)(=O)CC5)nc4c3F)c12` [Compound 53]: the IC50 is 100 to 1000 nM in test [1]; 1000 to 10000 nM in test [2]; above 10000 nM in test [3]; 100 to 1000 nM in test [4]; at most 100 nM in test [5]; above 10000 nM in test [6].

Take `N#Cc1c(N)sc2c(F)ccc(-c3c(C(F)(F)F)cc4c(N5CC6CCC(C5)N6)nc(OCCC5CCCO5)nc4c3F)c12` (stereo not drawn) [Compound 51]: the IC50 in test [1] is 100 to 1000 nM; in test [2], above 10000 nM; in test [3] it was above 10000 nM; in test [4], 1000 to 10000 nM; in test [5] it was at most 100 nM; in test [6] it was above 10000 nM.

In the case of `CN1C[C@H](COc2nc(N3CC4CCC(C3)N4)c3cc(C(F)(F)F)c(-c4ccc(F)c5sc(N)c(C#N)c45)c(F)c3n2)CC1=O` [Compound 33], the IC50 in test [1] was 100 to 1000 nM; in test [2], above 10000 nM; in test [3] it was above 10000 nM; in test [4], 1000 to 10000 nM; in test [5] it was at most 100 nM; in test [6] it was above 10000 nM.

Regarding `CN1C(=O)CC[C@H]1COc1nc(N2CC3CCC(C2)N3)c2cc(C(F)(F)F)c(-c3ccc(F)c4sc(N)c(C#N)c34)c(F)c2n1` [Compound 54], the IC50 in test [1] was 100 to 1000 nM; in test [2], above 10000 nM; in test [3], above 10000 nM; in test [4] it was 1000 to 10000 nM; in test [5], at most 100 nM; in test [6], above 10000 nM.

For the compound `N#Cc1c(N)sc2c(F)ccc(-c3c(C(F)(F)F)cc4c(N5CC6CCC(C5)N6)nc(OCCO)nc4c3F)c12` [Compound 32], the IC50 was 100 to 1000 nM in test [1]; above 10000 nM in test [2]; above 10000 nM in test [3]; 1000 to 10000 nM in test [4]; at most 100 nM in test [5]; above 10000 nM in test [6].

Turning to `N#Cc1c(N)sc2c(F)ccc(-c3c(C(F)(F)F)cc4c(N5CC6CCC(C5)N6)nc(OCCc5ccon5)nc4c3F)c12` [Compound 42], the IC50 was 100 to 1000 nM in test [1]; above 10000 nM in test [2]; 1000 to 10000 nM in test [3]; 1000 to 10000 nM in test [4]; at most 100 nM in test [5]; above 10000 nM in test [6].

Regarding `N#Cc1c(N)sc2c(F)ccc(-c3c(C(F)(F)F)cc4c(N5CC6CCC(C5)N6)nc(OCCCO)nc4c3F)c12` [Compound 31], the IC50 in test [1] was 100 to 1000 nM; in test [2], above 10000 nM; in test [3] it was above 10000 nM; in test [4] it was 1000 to 10000 nM; in test [5], at most 100 nM; in test [6], above 10000 nM.

For `N#Cc1c(N)sc2c(F)ccc(-c3c(C(F)(F)F)cc4c(N5CC6CCC(C5)N6)nc(OCC5CCOC5)nc4c3F)c12` (stereo not drawn) [Compound 47], the IC50 in test [1] is 100 to 1000 nM; in test [2], above 10000 nM; in test [3] it was above 10000 nM; in test [4], 1000 to 10000 nM; in test [5], at most 100 nM; in test [6], above 10000 nM.

On to `N#Cc1c(N)sc2c(F)ccc(-c3c(C(F)(F)F)cc4c(N5CC6CCC(C5)N6)nc(OCC5CCCO5)nc4c3F)c12` (stereo not drawn) [Compound 45], for which the IC50 was 100 to 1000 nM in test [1]; 1000 to 10000 nM in test [2]; 1000 to 10000 nM in test [3]; 1000 to 10000 nM in test [4]; at most 100 nM in test [5]; above 10000 nM in test [6].

In the case of `COCCCOc1nc(N2CC3CCC(C2)N3)c2cc(C(F)(F)F)c(-c3ccc(F)c4sc(N)c(C#N)c34)c(F)c2n1` [Compound 36], the IC50 is 100 to 1000 nM in test [1]; above 10000 nM in test [2]; above 10000 nM in test [3]; 1000 to 10000 nM in test [4]; at most 100 nM in test [5]; above 10000 nM in test [6].

As to `N#Cc1c(N)sc2c(F)ccc(-c3c(C(F)(F)F)cc4c(N5CC6CCC(C5)N6)nc(OCC(CO)CO)nc4c3F)c12` [Compound 30], the IC50 in test [1] was 100 to 1000 nM; in test [2], 1000 to 10000 nM; in test [3], 1000 to 10000 nM; in test [4], 100 to 1000 nM; in test [5], at most 100 nM; in test [6] it was above 10000 nM.

For the compound `CN1C[C@@H](COc2nc(N3CC4CCC(C3)N4)c3cc(C(F)(F)F)c(-c4ccc(F)c5sc(N)c(C#N)c45)c(F)c3n2)CC1=O` [Compound 56], the IC50 was 100 to 1000 nM in test [1]; 1000 to 10000 nM in test [2]; 1000 to 10000 nM in test [3]; 100 to 1000 nM in test [4]; at most 100 nM in test [5]; above 10000 nM in test [6].

In the case of `N#Cc1c(N)sc2c(F)ccc(-c3c(C(F)(F)F)cc4c(N5CC6CCC(C5)N6)nc(OC[C@H]5COCCO5)nc4c3F)c12` [Compound 40], the IC50 in test [1] is 100 to 1000 nM; in test [2] it was 1000 to 10000 nM; in test [3], 1000 to 10000 nM; in test [4] it was 100 to 1000 nM; in test [5], at most 100 nM; in test [6], above 10000 nM.

With `N#CCCOc1nc(N2CC3CCC(C2)N3)c2cc(C(F)(F)F)c(-c3ccc(F)c4sc(N)c(C#N)c34)c(F)c2n1` [Compound 44], the IC50 in test [1] was 1000 to 10000 nM; in test [2], above 10000 nM; in test [3], above 10000 nM; in test [4], 1000 to 10000 nM; in test [5], at most 100 nM; in test [6], above 10000 nM.

As to `CN1C(=O)CC[C@@H]1COc1nc(N2CC3CCC(C2)N3)c2cc(C(F)(F)F)c(-c3ccc(F)c4sc(N)c(C#N)c34)c(F)c2n1` [Compound 57], the IC50 is 100 to 1000 nM in test [1]; above 10000 nM in test [2]; above 10000 nM in test [3]; 1000 to 10000 nM in test [4]; at most 100 nM in test [5]; above 10000 nM in test [6].

With `N#Cc1c(N)sc2c(F)ccc(-c3c(C(F)(F)F)cc4c(N5CC6CCC(C5)N6)nc(OC[C@@H]5COCCO5)nc4c3F)c12` [Compound 38], the IC50 was 1000 to 10000 nM in test [1]; above 10000 nM in test [2]; above 10000 nM in test [3]; 1000 to 10000 nM in test [4]; at most 100 nM in test [5]; above 10000 nM in test [6].
